{
  "source": "patent US9855209B1",
  "about": "“Anti-bacterial mouthwash” (KING ABDULAZIZ UNIVERSITY, priority 2017, dated 2018)",
  "system": "Salmonella enterica subsp. Enterica serovar Typhimurium (ATCC 29629, TA 1535)",
  "test": "Ames test",
  "type": "cell-based",
  "settings": "positive control",
  "source_text": "The Ames test was followed according to a previously reported procedure (Ames et al, 1973; Mortelmans and Zeiger, 2000). Briefly, the test organism Salmonella enterica subsp. Enterica serovar Typhimurium (ATCC® 29629-Strain Designations: TA 1535), an auxotrophic mutant, was provided by ATCC, Manassas, USA. This auxotrophic isolate requires histidine for its growth, due to a mutation in its DNA. Substances to be tested for their mutagenesis, could be added in the histidine-free medium of the test organism, to monitor their ability to reverse back the mutated Salmonella typhimurium to a prototrophic state, enabling it to grow. The anti-bacterial mouthwash was incorporated in the histidine-free medium used in the Ames test, at four different concentrations namely, 1/100×, 1×, 1.5×, and 2× (where X is the dilution used in mouth rinsing experiments), while another batch of the medium was deprived of the Mouthwash substance. Ethidium bromide, an expected positive inducer of mutations in the test organism, was incorporated in another batch of the same histidine-free medium at two concentrations namely, 20 and 200 nmole. The S. Typhimurium was cultured in triplicate onto the 4 differently supplemented media, and on the 5th control medium that was deprived of supplementation, to observe the growth of this test organism. The bacterium was spread over these media with small amounts of histidine that helps in the initiation of the growth, and once this amino acid is depleted, only the mutated cells by the supplemented substance will be able to synthesize their histidine, and to continue their growth. Thus, mutagenicity is determined in this research from the proportion of the average colony forming units formed on triplicate of the supplemented medium with the anti-bacterial mouthwash versus that formed on triplicate of the non-supplemented medium, with the growth on Ethidium bromide acting as a positive control of the test.\nThe results of the Ames test in relation to reversion of the S. Typhimurium test organism from its auxotrophic to prototrophic nature is shown in Table 4.",
  "data": [
    {"smiles": "CC[n+]1c(-c2ccccc2)c2cc(N)ccc2c2ccc(N)cc21", "note": "[Ethidium bromide]", "values": [
      {"measurement": "Mean % increase in S. Typhimurium CFU count of triplicate relative to mean triplicate count on minimal Histidine-supplemented medium", "setting": "20 nmol/plate", "value": 0, "unit": "%"},
      {"measurement": "Mean % increase in S. Typhimurium CFU count of triplicate relative to mean triplicate count on minimal Histidine-supplemented medium", "setting": "20 nmol/plate, listed as Eth", "value": 0.0, "unit": "%"},
      {"measurement": "Mean % increase in S. Typhimurium CFU count of triplicate relative to mean triplicate count on minimal Histidine-supplemented medium", "setting": "200 nmol/plate, apparent reversion of mutation (P<0.05)", "value": 12.5, "unit": "%"}
    ]}
  ]
}
